Experimental data: publication PMC10466331, “Fluorescence polarisation activity-based protein profiling for the identification of deoxynojirimycin-type inhibitors selective for lysosomal retaining alpha- and beta-glucosidases” (Chemical Science, 2023)
Read-outs that look alike come from different tables or passages of the source.

Assays:
Format in all cases: biochemical
[1] = target: T1, ER α-glucosidase GANAB (from Pompe disease Fibroblast lysates) (Homo sapiens, UniProt Q14697); assay: fluorogenic substrate (4MU-α-D-glucopyranoside) assay on GANAB in Pompe fibroblast homogenates; conditions: Table S2, 4-MU alpha glucoside substrate, read-out: IC50 on GANAB;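 note: inhibitor preincubated 30 min at 37 °C with homogenate, then GANAB activity read after 2 h with 3.0 mM fluorogenic substrate in McIlvaine buffer containing 0.1% BSA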
T1 construct: Cellular homogenates of Pompe fibroblasts (1 mg mL^−1) were used as protein source for GANAB; endogenous in cells; host or cells: Pompe disease fibroblasts (homogenate)
T1 sequence (Q14697 29-944): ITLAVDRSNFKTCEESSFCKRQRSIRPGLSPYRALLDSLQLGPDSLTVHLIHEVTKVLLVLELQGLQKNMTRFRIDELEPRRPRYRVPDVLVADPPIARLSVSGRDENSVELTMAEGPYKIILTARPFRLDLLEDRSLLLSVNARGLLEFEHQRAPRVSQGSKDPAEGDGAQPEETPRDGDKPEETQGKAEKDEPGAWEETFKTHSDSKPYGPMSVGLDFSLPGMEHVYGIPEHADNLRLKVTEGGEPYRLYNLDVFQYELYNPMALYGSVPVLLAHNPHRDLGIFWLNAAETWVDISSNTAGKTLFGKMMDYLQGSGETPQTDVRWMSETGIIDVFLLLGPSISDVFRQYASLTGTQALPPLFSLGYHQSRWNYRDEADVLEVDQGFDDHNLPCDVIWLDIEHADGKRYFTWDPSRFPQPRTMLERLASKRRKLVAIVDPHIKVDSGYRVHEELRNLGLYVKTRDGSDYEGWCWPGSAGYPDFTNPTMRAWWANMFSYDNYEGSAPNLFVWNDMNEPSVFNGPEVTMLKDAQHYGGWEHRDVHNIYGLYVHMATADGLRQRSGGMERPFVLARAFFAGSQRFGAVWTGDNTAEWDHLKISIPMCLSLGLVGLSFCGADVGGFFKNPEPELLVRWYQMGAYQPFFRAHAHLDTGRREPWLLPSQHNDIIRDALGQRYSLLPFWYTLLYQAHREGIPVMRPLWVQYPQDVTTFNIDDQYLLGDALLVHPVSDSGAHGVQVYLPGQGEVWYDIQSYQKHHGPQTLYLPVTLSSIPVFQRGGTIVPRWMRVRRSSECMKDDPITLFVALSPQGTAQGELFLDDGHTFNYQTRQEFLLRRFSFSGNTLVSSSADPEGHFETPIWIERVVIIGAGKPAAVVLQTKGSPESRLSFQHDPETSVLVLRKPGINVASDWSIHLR
T1 sequence (P14314 15-528 partner): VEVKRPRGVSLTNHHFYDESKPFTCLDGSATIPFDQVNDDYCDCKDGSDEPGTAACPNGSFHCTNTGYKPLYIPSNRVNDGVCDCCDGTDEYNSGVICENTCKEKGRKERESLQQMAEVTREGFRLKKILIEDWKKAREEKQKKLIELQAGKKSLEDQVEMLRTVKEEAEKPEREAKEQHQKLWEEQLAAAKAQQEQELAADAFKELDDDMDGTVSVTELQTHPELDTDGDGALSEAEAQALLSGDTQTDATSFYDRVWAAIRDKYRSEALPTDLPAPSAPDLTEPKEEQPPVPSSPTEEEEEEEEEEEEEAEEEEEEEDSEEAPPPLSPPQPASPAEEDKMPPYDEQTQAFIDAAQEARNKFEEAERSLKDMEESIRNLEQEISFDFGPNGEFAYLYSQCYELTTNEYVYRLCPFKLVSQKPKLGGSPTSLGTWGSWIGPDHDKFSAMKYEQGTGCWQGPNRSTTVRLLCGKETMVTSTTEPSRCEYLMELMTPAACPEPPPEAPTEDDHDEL

[2] = target: T2, human recombinant lysosomal α-glucosidase GAA (Myozyme) (Homo sapiens, UniProt P10253); assay: fluorogenic substrate (4MU-α-D-glucopyranoside) assay on rhGAA; conditions: Table S2, 4-MU alpha glucoside substrate, read-out: IC50 on rhGAA
T2 construct: purchased Genzyme

[3] = target: T3, recombinant human GAA (rhGAA, Myozyme) (Homo sapiens, UniProt P10253); assay: competitive FluoPol-ABPP assay on rhGAA with TAMRA-ABP II; conditions: library screen, 5 μM inhibitor, 25 nM ABP II;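 note: fluorescence polarization read at 540 nm excitation and 590 nm emission, background-corrected, normalized to uninhibited probe labelling as 100% and excess cyclosulfate as 0%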
T3 construct: purchased Genzyme

| Compound | IC50 [1] | IC50 [2] | GAA FP% (residual FP-signal) [3] | other results |
| --- | --- | --- | --- | --- |
| CCCCOCCCCCN1C[C@H](O)[C@@H](O)[C@H](O)[C@H]1CO [#ID 283] | – | – | – | IC50 ([1]; listed as 283): 4900 nM; IC50 ([2]; listed as 283): 720 nM; GAA FP% (residual FP-signal) ([3]; listed as 283): 4.4% |
| CCCCN1C[C@H](O)[C@@H](O)[C@@H](O)[C@H]1CO [#ID 153] | 19000 nM | 3600 nM | 14% | – |
| CCCCCCOCCCCCN1C[C@H](O)[C@@H](O)[C@H](O)[C@H]1CO [#ID 21] | 14800 nM | 310 nM | 17% | – |
| CCCCCOCCCCCN1C[C@H](O)[C@@H](O)[C@H](O)[C@H]1CO [#ID 281] | – | – | – | IC50 ([1]; listed as 281): 3700 nM; IC50 ([2]; listed as 281): 540 nM; GAA FP% (residual FP-signal) ([3]; listed as 281): 4.2% |
| OC[C@@H]1[C@@H](O)[C@H](O)[C@@H](O)CN1CCCC(F)(F)COCc1ccc(-c2ccccc2)cc1 [#ID 349] | 4400 nM | 28 nM | 3.0% | – |
| OC[C@@H]1[C@@H](O)[C@H](O)[C@@H](O)CN1CCCCCOCC1CCCCC1 [#ID 127] | 1840 nM | 290 nM | 9.3% | – |
| CCCCOCCCCCN1C[C@H](O)[C@@H](O)[C@H](O)[C@H]1CO [#ID 19] | – | – | – | IC50 ([1]; listed as 19): 3600 nM; IC50 ([2]; listed as 19): 350 nM; GAA FP% (residual FP-signal) ([3]; listed as 19): 28% |
| CCCCCCCCOCCCCCN1C[C@H](O)[C@@H](O)[C@H](O)[C@H]1CO [#ID 25] | 4100 nM | 100 nM | 13% | – |
| CCCCCCCOCCCCCN1C[C@H](O)[C@@H](O)[C@H](O)[C@H]1CO [#ID 23] | – | – | – | IC50 ([1]; listed as 23): 7200 nM; IC50 ([2]; listed as 23): 290 nM; GAA FP% (residual FP-signal) ([3]; listed as 23): 16% |
| CCCCCCCCCN1C[C@H](O)[C@@H](O)[C@H](O)[C@H]1CO [#ID 103] | 9000 nM | 320 nM | 18% | – |
| OC[C@@H]1[C@H](O)[C@@H](O)[C@H](O)CN1CCOCc1ccccc1 [#ID 47] | 4600 nM | 550 nM | 34% | – |
| CCCCCCCCN1C[C@H](O)[C@@H](O)[C@H](O)[C@H]1CO [#ID 33] | – | – | – | IC50 ([1]; listed as 33): 16000 nM; IC50 ([2]; listed as 33): 540 nM; GAA FP% (residual FP-signal) ([3]; listed as 33): 28% |
| CCCCCCCOCCCCCN1C[C@H](O)[C@@H](O)[C@H](O)[C@H]1CO [#ID 276] | – | – | – | IC50 ([1]; listed as 276): 1810 nM; IC50 ([2]; listed as 276): 72 nM; GAA FP% (residual FP-signal) ([3]; listed as 276): 0.6% |
| CCCCCCCCCOCCCCCN1C[C@H](O)[C@@H](O)[C@H](O)[C@H]1CO [#ID 27] | 2800 nM | 280 nM | 8.4% | – |
| CC(C)=CCC/C(C)=C/CC/C(C)=C/CN1C[C@H](O)[C@@H](O)[C@H](O)[C@H]1CO [#ID 16] | 8800 nM | 320 nM | 0.9% | – |
| N#Cc1ccccc1-c1ccc(COCCCCCN2C[C@H](O)[C@@H](O)[C@H](O)[C@H]2CO)cc1 [#ID 328] | 1700 nM | 21 nM | 0.7% | – |

Now from value to compound, other results behind:

| IC50 [1] | IC50 [2] | GAA FP% (residual FP-signal) [3] | Compound | other results |
| --- | --- | --- | --- | --- |
| 1700 nM | 36 nM | 2.5% | OC[C@@H]1[C@@H](O)[C@H](O)[C@@H](O)CN1CCCCCOCc1ccc(-c2ccc(C(F)(F)F)cc2)cc1 [#ID 307] | – |
| 420 nM | 37 nM | 0.1% | N#Cc1ccc(-c2ccc(COCCCCCN3C[C@H](O)[C@@H](O)[C@H](O)[C@H]3CO)cc2)cc1 [#ID 309] | – |
| 150 nM | 93 nM | 1.7% | OC[C@@H]1[C@@H](O)[C@H](O)[C@@H](O)CN1CCCCCOCc1ccc(-c2ccc(Cl)cc2)cc1 [#ID 314] | – |
| 1300 nM | 130 nM | 0.8% | COc1ccccc1-c1ccc(COCCCCCN2C[C@H](O)[C@@H](O)[C@H](O)[C@H]2CO)cc1 [#ID 332] | – |
| 580 nM | 290 nM | 1.8% | OC[C@@H]1[C@@H](O)[C@H](O)[C@@H](O)CN1CCCCCCOCC12CC3CC(CC(C3)C1)C2 [#ID 141] | – |
| 1300 nM | 220 nM | 0.4% | OC[C@@H]1[C@@H](O)[C@H](O)[C@@H](O)CN1CCCCCOCC(COCCCCCN1C[C@H](O)[C@@H](O)[C@H](O)[C@H]1CO)C12CC3CC(CC(C3)C1)C2 [#ID 197] | – |
| 1600 nM | 160 nM | 1.5% | OC[C@@H]1[C@@H](O)[C@H](O)[C@@H](O)CN1CCCCCOCc1ccc(-c2ccnc(F)c2)cc1 [#ID 334] | – |
| 620 nM | 100 nM | 0.9% | OC[C@@H]1[C@@H](O)[C@H](O)[C@@H](O)CN1CCCCCOCc1ccccc1-c1ccccc1 [#ID 339] | – |
| 1300 nM | 89 nM | 1.1% | OC[C@@H]1[C@@H](O)[C@H](O)[C@@H](O)CN1CCCCCOCc1ccc(-c2ccncc2)cc1 [#ID 316] | – |
| 250 nM | 43 nM | 0.6% | OC[C@@H]1[C@@H](O)[C@H](O)[C@@H](O)CN1CCCCCOCc1ccc(-c2ccccc2)cc1 [#ID 343] | – |
| 850 nM | 250 nM | 7.7% | OC[C@@H]1[C@@H](O)[C@H](O)[C@@H](O)CN1CCCCCOCc1ccc2ccccc2c1 [#ID 58] | – |
| 690 nM | 12 nM | 0.8% | Cc1ccccc1-c1ccc(COCCCCCN2C[C@H](O)[C@@H](O)[C@H](O)[C@H]2CO)cc1 [#ID 326] | – |
| 400 nM | 42 nM | 0.4% | C[C@H](OCCCCCN1C[C@H](O)[C@@H](O)[C@H](O)[C@H]1CO)c1ccc(-c2ccccc2)cc1 [#ID 347] | – |
| 1600 nM | 430 nM | 4.1% | OC[C@@H]1[C@@H](O)[C@H](O)[C@@H](O)CN1CCCCCOCCC12CC3CC(CC(C3)C1)C2 [#ID 170] | – |
| 1300 nM | 82 nM | 1.0% | OC[C@@H]1[C@@H](O)[C@H](O)[C@@H](O)CN1CCCCCOCc1ccc(-c2cncnc2)cc1 [#ID 320] | – |
| 710 nM | 21 nM | 4.8% | OC[C@@H]1[C@@H](O)[C@H](O)[C@@H](O)CN1CCCCCOCc1ccc(-c2ccccc2)cc1F [#ID 35] | – |
| 570 nM | 12 nM | 0.9% | OC[C@@H]1[C@@H](O)[C@H](O)[C@@H](O)CN1CCCCCOCc1ccc(-c2ccc3c(c2)OCCO3)cc1 [#ID 324] | – |
